# Reference: PMC7321108, “1-Hydroxyanthraquinones Containing Aryl Substituents as Potent and Selective Anticancer Agents” (Molecules, 2020)
# Like-named read-outs stand apart in the source and are kept apart here.
# Columns and labels:
# [1] = tested on: SNB-19 glioblastoma cells; assay: MTT cytotoxicity assay, SNB-19; format: cell-based; details: Homo sapiens, 72 h incubation, mean ± SEM of three experiments, read-out: Cytotoxicity (GI50) against SNB-19
# Procedure: (§1) The cytotoxicity of the synthesized series of 4-substituted 5, 13–17, 22, 23, 2-substituted 25–30 and 2,4-disubstituted 1-hydroxy-9,10-anthraquinones 33–38, 40–45 was evaluated against a panel of seven different human cancer cell lines (glioblastoma cancer cells, human prostate cancer cells, T-cellular human leucosis, breast cancer cells) and also a normal cell line of hTERT-immortalized lung fibroblasts, using conventional MTT assay. Doxorubicin (DOX) is clinically used to treat cancer as drug in world and have a very wide antitumor spectrum. That we use them as positive control compounds. The cytotoxicity was determined by measuring the concentration inhibiting human tumor cell viability by 50% (GI50).
# (§2) The human cancer cells of the glioblastoma (U-87MG, SNB-19, T98G), prostate cancer cell line (LNCAP, DU-145), the cells of T-cellular human leucosis (MT-4) and human breast cancer cells (MDA-MB-231) were used in this study. The cells were cultured in the RPMI-1640 medium that contained 10% embryonic calf serum, L-glutamine (2 mmol/L), gentamicin ([…]) and lincomycin (30 mkg/mL) in a CO2 incubator at 37 °C. The tested compounds were dissolved in DMSO and added to the cellular culture at the required concentrations. Three wells were used for each concentration. The cells which were incubated without the compounds were used as a control. Cells were placed on 96-well microliter plates and cultivated at 37 °C in 5% CO2/95% air for 72 h. The cell viability was assessed through an MTT [3-(4,5-dimethylthiazol-2-yl)-[…]-2H-tetrazolium bromide] conversion assay. A total of 1% MTT was added to each well. Four hours later, DMSO was added and mixed for 15 min. Optical density (D) of the samples was measured on a BioRad 680 multi-well spectrophotometer (USA) at the wavelength of 450 nm. The 50% cytotoxic dose GI50) of each compound (i.e., the compound concentration that causes the death of 50% of cells in a culture, or decreases the optical density twice as compared to the control wells) was calculated from the data obtained. Statistical processing of the results was performed using the Microsoft Excel-2007, […] 6.0 and GraphPad Prism 5.0 programs. The results are given as an average value ± a deviation from the average (mean ± standard error of the mean (SEM)). Reliability of differences (p) was estimated using the Student t test. The differences with p < 0.05 were considered as reliable. The experimental results are given as the data average values obtained from three independently conducted experiments.
# [2] = tested on: U-87MG glioblastoma cells; assay: MTT cytotoxicity assay, U-87MG; format: cell-based; details: Homo sapiens, 72 h incubation, mean ± SEM of three experiments, read-out: Cytotoxicity (GI50) against U-87MG
# Procedure: as §1, §2
# [3] = tested on: T98G glioblastoma cells; assay: MTT cytotoxicity assay, T98G; format: cell-based; details: Homo sapiens, 72 h incubation, mean ± SEM of three experiments, read-out: Cytotoxicity (GI50) against T98G
# Procedure: as §1, §2
# [4] = tested on: LNCAP prostate cancer cells; assay: MTT cytotoxicity assay, LNCAP; format: cell-based, human; details: 72 h incubation, mean ± SEM of three experiments, read-out: Cytotoxicity (GI50) against LNCAP
# Procedure: as §1, §2
# [5] = tested on: DU-145 prostate cancer cells; assay: MTT cytotoxicity assay, DU-145; format: cell-based, human; details: Homo sapiens, DU-145, 72 h, 72 h incubation, mean ± SEM of three experiments, read-out: Cytotoxicity (GI50) against DU-145
# Procedure: as §1, §2
# [6] = tested on: MT-4 cells of T-cellular human leucosis; assay: MTT cytotoxicity assay, MT-4; format: cell-based; details: MT4, 72 h incubation, mean ± SEM of three experiments, read-out: Cytotoxicity (GI50) against MT-4
# Procedure: as §1, §2
# [7] = tested on: MDA-MB-231 breast cancer cells; assay: MTT cytotoxicity assay, MDA-MB-231; format: cell-based; details: Homo sapiens, 72 h incubation, mean ± SEM of three experiments, read-out: Cytotoxicity (GI50) against MDA-MB-231
# Procedure: as §1, §2
# [8] = MTT cytotoxicity assay, normal hTERT-immortalized lung fibroblasts; format: cell-based; details: human, hTERT-immortalized lung fibroblasts (normal cell line), 72 h incubation, mean ± SEM of three experiments, read-out: Cytotoxicity (GI50) against hTERT Lung Fibroblasts
# Procedure: as §1, §2
Structure (SMILES),melting point,GI50 [1] [µM],GI50 [2] [µM],GI50 [3] [µM],"GI50 ([4]; Homo sapiens, LNCaP, 72 h) [µM]",GI50 [5] [µM],GI50 [6] [µM],GI50 [7] [µM],GI50 at 72 h [8] [µM],GI50 [4] [µM]
"O=C1c2ccccc2C(=O)c2c(O)c(-c3cc(C(F)(F)F)ccc3Cl)cc(-c3cc(C(F)(F)F)ccc3Cl)c21 [Compound 38, 2,4-Di-(2-chloro-5-(trifluoromethyl)phenyl)-1-hydroxyanthracene-9,10-dione]",,39.4 ± 2.16,> 100,7.8 ± 0.56,> 100,6.5 ± 0.89,> 100,32.5 ± 5.37,19.4 ± 0.97,
"COc1cc(-c2ccc(O)c3c2C(=O)c2ccccc2C3=O)cc(OC)c1OC [Compound 5, 1-Hydroxy-4-(3,4,5-trimethoxyphenyl)anthracene-9,10-dione]",230.5 °C (dec.),6.7 ± 0.47,> 100,72.5 ± 3.21,21.1 ± 0.85,14.8 ± 0.52,42 ± 4.14,28.6 ± 1.24,28.6 ± 4.54,
"COc1ccc(-c2cc(-c3cc(OC)c(OC)c(OC)c3)c(O)c3c2C(=O)c2ccccc2C3=O)cc1 [Compound 44, 1-Hydroxy-4-(4-methoxyphenyl)-2-(3,4,5-trimethoxyphenyl)anthracene-9,10-dione]",,41.8 ± 5.27,> 100,16.5 ± 1.26,14.2 ± 3.12,15.2 ± 1.06,40.5 ± 6.44,19.1 ± 0.98,36.2 ± 1.31,
"COc1cc(-c2cc(-c3ccc(Cl)cc3C(F)(F)F)c3c(c2O)C(=O)c2ccccc2C3=O)cc(OC)c1OC [Compound 45, 4-(4-Chloro-2-(trifluoromethyl)phenyl)-1-hydroxy-2-(3,4,5-trimethoxyphenyl)-anthracene-9,10-dione]",226.8 °C (dec.),11.2 ± 1.49,18.2 ± 1.06,28.3 ± 3.25,6.2 to 7.2,22.6 ± 0.91,31.5 ± 1.52,14.2 ± 1.42,20.5 ± 2.68,7.2 ± 0.74
"Cc1ccccc1-c1ccc(O)c2c1C(=O)c1ccccc1C2=O [Compound 14, 1-Hydroxy-4-(o-tolyl)anthracene-9,10-dione]",,38.1 ± 1.15,> 100,> 100,92 ± 3.93,41.1 ± 3.34,65 ± 5.49,> 100,> 100,

# Further lines, with some results ahead:
melting point,Structure (SMILES),GI50 [1] [µM],GI50 [2] [µM],GI50 [3] [µM],"GI50 ([4]; Homo sapiens, LNCaP, 72 h) [µM]",GI50 [5] [µM],GI50 [6] [µM],GI50 [7] [µM],GI50 at 72 h [8] [µM],GI50 [4] [µM]
60.4 °C (dec.),"COc1cc(-c2cc(-c3ccccc3)c3c(c2O)C(=O)c2ccccc2C3=O)cc(OC)c1OC [Compound 43, 1-Hydroxy-4-phenyl-2-(3,4,5-trimethoxyphenyl)anthracene-9,10-dione]",19.2 ± 2.52,> 100,16.1 ± 0.78,> 100,18.6 ± 2.45,> 100,17.1 ± 1.55,34.1 ± 0.92,
225 to 228 °C,"O=C1c2ccccc2C(=O)c2c(O)c(-c3ccccc3)cc(-c3ccccc3)c21 [Compound 33, 1-Hydroxy-2,4-diphenylanthracene-9,10-dione]",18.3 ± 1.12,56.8 ± 2.36,24.6 ± 0.85,21.3 ± 1.16,> 100,> 100,28.3 ± 1.06,52.8 ± 8.05,
187.1 °C (dec.),"COc1ccc(-c2cc(Br)c3c(c2O)C(=O)c2ccccc2C3=O)cc1 [Compound 40, 4-Bromo-1-hydroxy-2-(4-methoxyphenyl)anthracene-9,10-dione]",6.1 ± 0.38,10.2 ± 1.03,8.1 ± 0.98,22.2 ± 1.26,7.1 ± 0.72,35.6 ± 3.28,10.5 ± 1.03,16.5 ± 0.46,
214.2 to 214.3 °C,"O=C1c2ccccc2C(=O)c2c(-c3cc(F)cc(F)c3)ccc(O)c21 [Compound 17, 1-(3,5-Difluorophenyl)-4-hydroxyanthracene-9,10-dione]",10.2 ± 0.86,8.2 ± 1.35,9.2 ± 0.56,16.7 ± 1.34,3.5 ± 0.96,38.3 ± 3.16,9.6 ± 0.69,26.6 ± 2.44,
